Assay results from PMC9403976, “Elucidating the path to Plasmodium prolyl-tRNA synthetase inhibitors that overcome halofuginone resistance” (Nature Communications, 2022).
“And” between values parts separate entries of the source, which are not always exact repeats. Identical values can stand only once. Like-named read-outs stand apart in the source and are kept apart here.

Key:
P. falciparum Dd2-2D4 = assay: P. falciparum asexual blood stage (ABS) growth assay, SYBR Green, 72 h, wild-type parasites; type: cell-based, Plasmodium falciparum; conditions: Plasmodium falciparum
[1] = tested on: P. falciparum Dd2-2D4 NCP26 selections S1-3; assay: ABS growth assay on bulk populations and clones from NCP26 resistance selections S1-3; type: cell-based, Plasmodium falciparum; conditions: for EC50: Plasmodium falciparum; for Fold-change Resistance: independent experiments
[2] = tested on: halofuginone-induced P. falciparum (elevated proline homeostasis); assay: P. falciparum ABS growth assay, SYBR Green, 72 h, halofuginone-induced parasites; type: cell-based, Plasmodium falciparum; conditions: Halofuginone-Induced (HFG-Induced)
Procedure, shortened: (§1)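 Dd2-derived erythrocytic-stage parasites at 1% parasitemia and 1% hematocrit in RPMI + 0.5% Albumax were exposed to compounds in triplicate dose-response. Controls were 10 μM dihydroartemisinin (kill) and no-compound wells (growth). Growth was read by SYBR Green 1 fluorescence after 72 h and used to derive EC50.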

[3] = tested on: HFGR-I P. falciparum (elevated proline homeostasis and PfcProRS^L482H); assay: P. falciparum ABS growth assay, SYBR Green, 72 h, HFGR-I parasites; type: cell-based, Plasmodium falciparum; conditions: HFGR-I
Procedure, shortened: as §1

PfcProRS = target: T1, PfcProRS (Plasmodium falciparum, UniProt Q8I5R7); type: binding; conditions: for Normalized response, dose-response replicates (SI Fig 14): replicates 1-3
T1 construct: made in house; host or cells: E. coli SoluBL-21
T1 sequence (Q8I5R7 249-746): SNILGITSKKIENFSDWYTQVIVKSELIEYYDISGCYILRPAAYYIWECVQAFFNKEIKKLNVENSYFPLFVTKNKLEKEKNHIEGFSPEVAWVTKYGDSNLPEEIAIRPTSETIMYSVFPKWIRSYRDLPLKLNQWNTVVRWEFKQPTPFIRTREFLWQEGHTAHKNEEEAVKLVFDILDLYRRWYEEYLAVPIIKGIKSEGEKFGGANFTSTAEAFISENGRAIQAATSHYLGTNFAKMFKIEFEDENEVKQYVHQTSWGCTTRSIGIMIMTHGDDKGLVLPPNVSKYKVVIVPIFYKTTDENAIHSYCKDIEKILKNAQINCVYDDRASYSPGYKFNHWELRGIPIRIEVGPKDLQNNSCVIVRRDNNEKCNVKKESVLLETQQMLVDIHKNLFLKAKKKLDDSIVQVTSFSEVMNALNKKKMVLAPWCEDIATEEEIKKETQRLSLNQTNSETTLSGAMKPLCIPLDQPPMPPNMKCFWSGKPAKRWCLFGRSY

HsProRS = HsProRS (Homo sapiens, UniProt P07814); assay: TR-FRET ligand displacement assay with tracer MAT379 (CoraFluor-1-Halo and anti-His6 antibody formats); type: binding; set-up: made in house; host or cells: E. coli SoluBL-21; conditions: for Kd: 250 nM MAT379; for normalized TR-FRET signal (dose-response replicates): SI Fig 17a
Chain of HsProRS (P07814 996-1512): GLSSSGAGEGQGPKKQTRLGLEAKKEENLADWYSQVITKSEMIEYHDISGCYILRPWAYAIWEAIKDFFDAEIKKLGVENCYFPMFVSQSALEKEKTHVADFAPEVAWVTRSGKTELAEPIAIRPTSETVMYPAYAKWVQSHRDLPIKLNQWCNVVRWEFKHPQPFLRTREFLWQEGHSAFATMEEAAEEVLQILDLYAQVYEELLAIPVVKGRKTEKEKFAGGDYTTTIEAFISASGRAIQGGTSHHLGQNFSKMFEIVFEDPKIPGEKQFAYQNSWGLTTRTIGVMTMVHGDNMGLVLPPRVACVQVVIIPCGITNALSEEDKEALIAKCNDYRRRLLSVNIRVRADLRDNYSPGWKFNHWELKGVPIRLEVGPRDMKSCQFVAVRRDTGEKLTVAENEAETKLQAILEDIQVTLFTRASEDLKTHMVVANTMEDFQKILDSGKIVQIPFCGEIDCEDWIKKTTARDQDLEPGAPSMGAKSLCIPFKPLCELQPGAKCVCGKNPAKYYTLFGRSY

[4] = Log[inhibitor] (M) -5.000, series r16-r27

Compound `C[C@@H]1C[C@H](C)C[C@H](C)[C@@H](O)CC(=O)O[C@H]([C@@H]2CCC[C@H]2C(=O)O)C/C=C/C=C(/C#N)[C@H](O)[C@@H](C)C1` [Borrelidin, borrelidin, reference compound] has an EC50 (P. falciparum Dd2-2D4; cell line Dd2-2D4 (parent), read-out: EC50 [nM] mean) of 6.05 nM, an EC50 ([1]; DD2, cell line S1 - Clone A8, read-out: EC50 [nM] mean) of 1.5 nM and an EC50 ([1]; DD2, cell line S1 - bulk population, read-out: EC50 [nM] mean) of 1.45 nM. It also gave an EC50 ([1]; DD2, cell line S2 - Clone A3, read-out: EC50 [nM] mean) of 1.6 nM, an EC50 ([1]; DD2, cell line S2 - Clone B9, read-out: EC50 [nM] mean) of 4.67 nM and an EC50 ([1]; DD2, cell line S2 - Clone C5, read-out: EC50 [nM] mean) of 1.51 nM. It also gave an EC50 ([1]; DD2, cell line S2 - bulk population, read-out: EC50 [nM] mean) of 1.3 nM, an EC50 ([1]; DD2, cell line S3 - Clone B3, read-out: EC50 [nM] mean) of 1.34 nM and an EC50 ([1]; DD2, cell line S3 - Clone B7, read-out: EC50 [nM] mean) of 1.38 nM. For the same compound, the EC50 ([1]; DD2, cell line S3 - bulk population, read-out: EC50 [nM] mean) was 1.3 nM, the EC50 ([1]; DD2, read-out: EC50 [nM] mean, cell line S3 - Clone B2) was 5.92 nM and the “Fold-change Resistance” value ([1]; S2 - Clone B9) was 1.46 and 0.77. For the same compound, the “Fold-change Resistance” value ([1]; S3 - Clone B2) was 1.02 and 1.96.

For `CC(C)(C)OC(=O)N1CCC[C@H]1C(=O)NCC1CCN(C(=O)Nc2nccnc2C(=O)NC2Cc3ccccc3C2)CC1` [compound 32], the EC50 (P. falciparum Dd2-2D4; DD2, SI Fig 16b, values on -log scale, read-out: ABS - Dd2-2D4 (converted)) was 63.2 nM, the “parasite growth, dose-response point” value [2, 4] was 56 and 59 and 61 and the “parasite growth, dose-response point” value ([2]; Log[inhibitor] (M) -5.408) was 91 and 93. The “parasite growth, dose-response point” value ([2]; Log[inhibitor] (M) -5.816) was 97 and 101, the “parasite growth, dose-response point” value ([2]; Log[inhibitor] (M) -6.222) was 101 and 104 and the “parasite growth, dose-response point” value ([2]; Log[inhibitor] (M) -6.638) was 105 and 99 and 109. The “parasite growth, dose-response point” value ([2]; Log[inhibitor] (M) -7.046) was 102 and 106, the “parasite growth, dose-response point” value ([2]; Log[inhibitor] (M) -7.450) was 96 and 98 and 97 and the “parasite growth, dose-response point” value ([2]; Log[inhibitor] (M) -7.854) was 92 and 97 and 99. The “parasite growth, dose-response point” value ([2]; Log[inhibitor] (M) -8.260) was 102 and 96 and 100, the “parasite growth, dose-response point” value ([2]; Log[inhibitor] (M) -8.699) was 96 and 106 and 94 and the “parasite growth, dose-response point” value ([2]; Log[inhibitor] (M) -9.000) was 100 and 96 and 98. For the same compound, the “parasite growth, dose-response point” value ([2]; Log[inhibitor] (M) -9.488) was 96 and 100 and 101, the “parasite growth, dose-response point” value [3, 4] was 65 and 64 and 69 and the “parasite growth, dose-response point” value ([3]; Log[inhibitor] (M) -5.408) was 103 and 102 and 96. The “parasite growth, dose-response point” value ([3]; Log[inhibitor] (M) -5.816) was 108 (2×) and 102, the “parasite growth, dose-response point” value ([3]; Log[inhibitor] (M) -6.222) was 105 and the “parasite growth, dose-response point” value ([3]; Log[inhibitor] (M) -6.638) was 107 and 104 and 103. The “parasite growth, dose-response point” value ([3]; Log[inhibitor] (M) -7.046) was 101 and 105 and 99, the “parasite growth, dose-response point” value ([3]; Log[inhibitor] (M) -7.450) was 87 and 91 and 96 and the “parasite growth, dose-response point” value ([3]; Log[inhibitor] (M) -7.854) was 87 and 93 and 83. The “parasite growth, dose-response point” value ([3]; Log[inhibitor] (M) -8.260) was 88 and 90 and 94, the “parasite growth, dose-response point” value ([3]; Log[inhibitor] (M) -8.699) was 93 and 91 and the “parasite growth, dose-response point” value ([3]; Log[inhibitor] (M) -9.000) was 91 and 92 and 87. The “parasite growth, dose-response point” value ([3]; Log[inhibitor] (M) -9.488) was 92 and 82, the “Normalized response, dose-response replicates (SI Fig 14)” value (from here on “Normalized response”) (PfcProRS; Log[inhibitor] (M) -5.000) was 8.11E-02 and -2.06E-02 and -4.64E-02 and the “Normalized response” value (PfcProRS; Log[inhibitor] (M) -5.301) was 3.54E-04 and -5.93E-02 and 6.94E-02. The “Normalized response” value (PfcProRS; Log[inhibitor] (M) -5.601) was 6.67E-02 and 8.89E-02 and 6.64E-02, the “Normalized response” value (PfcProRS; Log[inhibitor] (M) -5.904) was 2.31E-01 and 3.17E-01 and 2.64E-01 and the “Normalized response” value (PfcProRS; Log[inhibitor] (M) -6.208) was 3.63E-01 and 4.57E-01 and 4.26E-01. The “Normalized response” value (PfcProRS; Log[inhibitor] (M) -6.509) was 7.41E-01 and 6.71E-01 and 7.68E-01, the “Normalized response” value (PfcProRS; Log[inhibitor] (M) -6.796) was 9.02E-01 and 7.89E-01 and 8.70E-01 and the “Normalized response” value (PfcProRS; Log[inhibitor] (M) -7.108) was 8.53E-01 and 8.96E-01 and 8.71E-01. The “Normalized response” value (PfcProRS; Log[inhibitor] (M) -7.409) was 8.49E-01 and 8.87E-01 and 9.83E-01, the “Normalized response” value (PfcProRS; Log[inhibitor] (M) -7.710) was 9.08E-01 and 9.29E-01 and 9.85E-01 and the “Normalized response” value (PfcProRS; Log[inhibitor] (M) -8.000) was 9.86E-01 and 8.66E-01 and 9.79E-01. For the same compound, the “Normalized response” value (PfcProRS; Log[inhibitor] (M) -8.301) was 1.11E+00 and 8.88E-01 and 9.05E-01, the “Normalized response” value (PfcProRS; Log[inhibitor] (M) -8.602) was 9.30E-01 and 8.25E-01 and 1.02E+00 and the “Normalized response” value (PfcProRS; Log[inhibitor] (M) -9.000) was 8.77E-01 and 8.28E-01 and 9.46E-01. For the same compound, the “Normalized response” value (PfcProRS; Log[inhibitor] (M) -9.301) was 8.47E-01 and 9.35E-01 and 9.98E-01, the “PfcProRS -- best Kd” value (PfcProRS; SI Fig 16a, values on -log scale) was 8.272 and the Kd (HsProRS; HsProRS (KD [nM]) + proline, 100 μM proline) was 270 nM. For the same compound, the Kd (HsProRS; HsProRS (KD [nM]) −, absence of substrates) was 72.1 nM, the “normalised signal, dose-response point (Fig 4d)” value (“normalised signal” below) (HsProRS; Log[inhibitor] (M) -5.000, series of 32) was 2.12E-01 and 2.00E-01 and 2.05E-01 and the “normalised signal” value (HsProRS; Log[inhibitor] (M) -5.260) was 3.41E-01 and 3.06E-01 and 3.25E-01. The “normalised signal” value (HsProRS; Log[inhibitor] (M) -5.520) was 5.51E-01 and 5.09E-01 and 5.11E-01, the “normalised signal” value (HsProRS; Log[inhibitor] (M) -5.770) was 5.87E-01 and 6.67E-01 and 6.60E-01 and the “normalised signal” value (HsProRS; Log[inhibitor] (M) -6.020) was 8.17E-01 and 7.53E-01 and 7.81E-01. The “normalised signal” value (HsProRS; Log[inhibitor] (M) -6.280) was 8.69E-01 and 9.20E-01 and 9.33E-01, the “normalised signal” value (HsProRS; Log[inhibitor] (M) -6.530) was 9.20E-01 and 9.88E-01 and 9.42E-01 and the “normalised signal” value (HsProRS; Log[inhibitor] (M) -6.800) was 9.40E-01 and 8.89E-01. For the same compound, the “normalised signal” value (HsProRS; Log[inhibitor] (M) -7.060) was 9.33E-01 and 9.82E-01 and 1.04E+00, the “normalised signal” value (HsProRS; Log[inhibitor] (M) -7.320) was 9.28E-01 and 1.05E+00 and 1.04E+00 and the “normalised signal” value (HsProRS; Log[inhibitor] (M) -7.550) was 9.75E-01 and 9.78E-01 and 9.48E-01. For the same compound, the “normalised signal” value (HsProRS; Log[inhibitor] (M) -7.800) was 9.53E-01 and 9.20E-01 and 9.82E-01, the “normalised signal” value (HsProRS; Log[inhibitor] (M) -8.100) was 1.05E+00 and 1.02E+00 and 1.07E+00 and the “normalised signal” value (HsProRS; Log[inhibitor] (M) -8.400) was 1.08E+00 and 1.05E+00 and 1.02E+00. For the same compound, the “normalised signal” value (HsProRS; Log[inhibitor] (M) -8.590) was 1.09E+00 and 1.06E+00 and 1.01E+00, the “normalized TR-FRET signal (dose-response replicates)” value (“normalized TR-FRET signal” for short) (HsProRS; Log[inhibitor] (M) -5.000) was 2.39E-01 and 2.20E-01 and 1.87E-01 and the “normalized TR-FRET signal” value (HsProRS; Log[inhibitor] (M) -5.301) was 3.62E-01 and 3.47E-01 and 3.37E-01. The “normalized TR-FRET signal” value (HsProRS; Log[inhibitor] (M) -5.601) was 5.14E-01 and 4.86E-01 and 5.28E-01, the “normalized TR-FRET signal” value (HsProRS; Log[inhibitor] (M) -5.904) was 6.65E-01 and 6.61E-01 and 6.44E-01 and the “normalized TR-FRET signal” value (HsProRS; Log[inhibitor] (M) -6.208) was 7.43E-01 and 7.50E-01 and 7.76E-01. The “normalized TR-FRET signal” value (HsProRS; Log[inhibitor] (M) -6.509) was 8.47E-01 and 8.09E-01 and 8.87E-01, the “normalized TR-FRET signal” value (HsProRS; Log[inhibitor] (M) -6.796) was 8.64E-01 and 8.39E-01 and 8.67E-01 and the “normalized TR-FRET signal” value (HsProRS; Log[inhibitor] (M) -7.108) was 8.86E-01 and 8.93E-01 and 9.29E-01. The “normalized TR-FRET signal” value (HsProRS; Log[inhibitor] (M) -7.409) was 9.16E-01 and 8.51E-01 and 8.90E-01, the “normalized TR-FRET signal” value (HsProRS; Log[inhibitor] (M) -7.710) was 8.73E-01 and 8.93E-01 and 9.04E-01 and the “normalized TR-FRET signal” value (HsProRS; Log[inhibitor] (M) -8.000) was 8.95E-01 and 8.48E-01 and 9.51E-01. For the same compound, the “normalized TR-FRET signal” value (HsProRS; Log[inhibitor] (M) -8.301) was 9.44E-01 and 8.99E-01 and 9.43E-01, the “normalized TR-FRET signal” value (HsProRS; Log[inhibitor] (M) -8.602) was 9.47E-01 and 8.94E-01 and 9.08E-01 and the “normalized TR-FRET signal” value (HsProRS; Log[inhibitor] (M) -9.000) was 8.96E-01 and 9.17E-01 and 8.59E-01. For the same compound, the “normalized TR-FRET signal” value (HsProRS; Log[inhibitor] (M) -9.301) was 8.96E-01 and 9.24E-01 and 9.14E-01.
